Legend:
[1] = DPPH scavenging assay; settings: for DPPH Free Radical Scavenging Ability: mean ± S.E.M, n = 3
Excerpt: The antioxidant potential of the free acids and their Cu(II) carboxylates was explored via the DPPH method using ascorbic acid as a reference. The DPPH, with a single unpaired electron, is capable of accepting a hydrogen or electron and gives a strong absorption at 517 nm. The absorption generally decreases when it accepts a hydrogen or electron from an antioxidant, forming a stable molecule. The results given in Table 5 indicate that the compounds under study show a moderate level of antioxidant potential. This activity may be attributed to the various structural and electronic factors like coordination geometry, redox properties, chelate ring size, degree of unsaturation, etc.. The transfer of proton or electron from an antioxidant to DPPH results in the formation of species that undergo other reactions like coupling, fragmentation, and addition, which affect the rate and stoichiometry of the reaction.
The compounds under study were subjected to DPPH scavenging ability test as per cited literature. A 0.004% solution of reagent DPPH was added to the different concentrations of tested compounds (i.e., 125, 250, 500 and 1000 μg/mL) and the reaction mixture was incubated subsequently for about thirty minutes in dark. Ascorbic acid was used as positive control. The UV-3000 O.R.I. Germany was used to record the change in absorption of the reaction mixture at 517 nm and the percentage scavenging ability of the compounds under study was determined using formula: % scavenging activity =Absorbance of control−Absorbance of compounds /Absorbance of control×100
The experiments were repeated thrice. The GraphPad Prism® (version 4.0, Sandiego, CA, USA) was used to calculate the IC50 values.

[2] = Hydrogen peroxide scavenging assay; settings: for H2O2 free radical scavenging ability: mean ± S.E.M, n = 3
Experimental: In addition to DPPH the ligand acids and their complexes were also evaluated for their peroxide scavenging ability test. Hydrogen peroxide (H2O2) is a biologically important, non-radical reactive oxygen species (ROS) that can influence several cellular processes. It is a weak oxidizing agent and can inactivate a few enzymes directly, usually via oxidation of essential thiol (-SH) groups. It can cross cell membranes rapidly, and inside the cell, H2O2 probably reacts with Fe^2+ (and possibly Cu^2+) ions to form the hydroxyl radical, which may be the origin of many of its toxic effects. It is, therefore, biologically advantageous for cells to control the amount of hydrogen peroxide that is allowed to accumulate.
The ligand acids and their Cu(II) carboxylates were further subjected to H2O2 scavenging ability test potential by following the procedure as per cited literature. A 2 mM solution of H2O2 was made in 50 mM phosphate buffer having a pH 7.4. In the next step, 0.1 mL of the screened compounds was added to the 0.3 mL (50 mM) of phosphate buffer, then 0.6 mL of H2O2 was added and the solution was vortexed. After following the incubation period of 10 min, the absorption was 230 nm in comparison to the blank.

[3] = molecular target: acetylcholinesterase (AChE) (Electrophorus electricus, UniProt O42275); experiment: biochemical; format: biochemical; settings: for Inhibition of Acetylcholinesterase (%AChE Activity): n = 3
Experimental: The synthesized compounds were evaluated for acetylcholinesterase (ACh) and butyrylcholinesterase (BCh) enzyme inhibitory activities.
(§1) The enzymes acetylcholinesterase (AChE) and butyrylcholinesterase (BChE) play an important role in the transfer of signals and physiological function. They assist acetylcholine to hydrolyze and produce choline and acetyl group in synaptic region. So, they are considered as targets in the management of Alzheimer’s disease. Herein, the compounds under study were evaluated for their potential to inhibit acetylthiocholine iodide (AChI) and butyrylthiocholine iodide (BChI) enzymes.
(§2) The well-known Ellman’s assay was implemented to evaluate the inhibitory potential using acetylthiocholine iodide (AChI) and butyrylthiocholine iodide (BChI) as substrates, respectively. The basic principle of the assay is the hydrolysis of acetylthiocholine iodide and butyrylthiocholine iodide by their corresponding enzymes, resulting in the formation of 5-thio-2-nitrobenzoate anion.
(§3) To carry out the assay, 0.1 M buffer solution with pH 8 was prepared as per the cited literature where the pH was adjusted using KOH (potassium hydroxide). Using the freshly prepared buffer and following the dilution, final concentrations of 0.03 U/mL for AChE (518 U/mg solid) and 0.01 U/mL for BChE (7–16 U/mg) were obtained. […] After that, the final solution of each of the AChE and BChE was prepared in distilled water in the presence of […] DTNB and were stored at 8 °C. The experiment was performed by taking 205 µL of inhibitor (tested compound) along with 5 µL of prepared solutions of enzymes, followed by the addition of 5 μL DTNB reagent. They were then incubated for about 15 min in a water bath at a temperature of 30 °C. Later on, 5 µL substrate solution was added to them which were subjected to absorption check at 412 nm. […] The temperature of the spectrophotometer was adjusted at 30 °C and then, following the reaction time of 4 min, the absorbance values were noted after regular intervals. The experiment was repeated, and change in absorption with time was used to calculate the percentage activity of enzyme and enzyme inhibitor [59]. The p values, or calculated probability levels, are categorized as: 5% (p < 0.05), 1% (p < 0.01) and 0.1% (p < 0.001). p < 0.05 means statistically significant and p < 0.001 means highly statistically significant.

[4] = molecular target: butyrylcholinesterase (BChE) (Equus caballus, UniProt P81908); experiment: biochemical; settings: for inhibition of butyrylcholinesterase (% BChE activity): n = 3
Experimental: as §1, §2, §3

[5] = DPPH scavenging assay; settings: Comp. Conc. 62.5 µg/mL; mean ± S.E.M, n = 3

Sequence of butyrylcholinesterase (BChE) (P81908 whole entry): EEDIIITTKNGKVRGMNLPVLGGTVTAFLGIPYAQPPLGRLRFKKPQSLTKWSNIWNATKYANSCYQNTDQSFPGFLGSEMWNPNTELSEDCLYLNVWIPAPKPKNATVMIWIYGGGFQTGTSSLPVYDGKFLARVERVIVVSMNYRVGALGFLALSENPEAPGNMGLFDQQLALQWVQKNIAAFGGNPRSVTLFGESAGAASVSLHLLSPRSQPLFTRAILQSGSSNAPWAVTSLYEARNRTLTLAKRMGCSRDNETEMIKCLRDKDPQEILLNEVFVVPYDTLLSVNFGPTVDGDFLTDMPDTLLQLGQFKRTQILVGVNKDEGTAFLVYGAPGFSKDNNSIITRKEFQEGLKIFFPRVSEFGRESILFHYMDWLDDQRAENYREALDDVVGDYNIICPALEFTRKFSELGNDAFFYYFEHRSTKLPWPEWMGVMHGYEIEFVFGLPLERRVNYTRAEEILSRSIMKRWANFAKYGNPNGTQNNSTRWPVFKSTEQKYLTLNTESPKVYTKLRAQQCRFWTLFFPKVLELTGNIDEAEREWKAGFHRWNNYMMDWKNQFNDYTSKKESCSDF
Sequence of acetylcholinesterase (AChE) (O42275 24-633): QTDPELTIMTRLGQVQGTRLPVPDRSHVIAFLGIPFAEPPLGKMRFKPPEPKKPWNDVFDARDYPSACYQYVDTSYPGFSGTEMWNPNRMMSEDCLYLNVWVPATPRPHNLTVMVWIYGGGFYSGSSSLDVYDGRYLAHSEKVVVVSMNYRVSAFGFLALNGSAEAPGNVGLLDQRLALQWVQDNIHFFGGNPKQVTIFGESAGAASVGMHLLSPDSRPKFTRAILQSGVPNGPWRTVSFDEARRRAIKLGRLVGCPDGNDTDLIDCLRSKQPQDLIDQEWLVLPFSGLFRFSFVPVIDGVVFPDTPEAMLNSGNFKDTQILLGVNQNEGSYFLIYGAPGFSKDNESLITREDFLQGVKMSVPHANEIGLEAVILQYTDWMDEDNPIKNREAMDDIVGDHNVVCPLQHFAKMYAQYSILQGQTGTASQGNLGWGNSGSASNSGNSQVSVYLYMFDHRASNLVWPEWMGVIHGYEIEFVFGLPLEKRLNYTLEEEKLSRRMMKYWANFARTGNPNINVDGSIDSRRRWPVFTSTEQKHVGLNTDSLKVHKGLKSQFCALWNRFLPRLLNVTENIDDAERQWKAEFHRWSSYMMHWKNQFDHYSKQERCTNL

Structure (SMILES): N#Cc1ccncc1.N#Cc1ccncc1.O=C([O-])Cc1ccccc1Cl.O=C([O-])Cc1ccccc1Cl.O=C([O-])Cc1ccccc1Cl.O=C([O-])Cc1ccccc1Cl.[Cu+2].[Cu+2] [Complex 2, Cu2(2-ClC6H4COO)4(4-CNPy)2]
- IC50, DPPH Free Radical Scavenging Ability [1]: 3.22 µg/mL
- DPPH Free Radical Scavenging Ability ([1]; Comp. Conc. 125 µg/mL): 81.20 ± 0.65 ^⸙ %
- DPPH Free Radical Scavenging Ability ([1]; Comp. Conc. 250 µg/mL): 86.98 ± 0.85 %
- DPPH Free Radical Scavenging Ability ([1]; Comp. Conc. 500 µg/mL): 91.17 ± 0.53 %
- DPPH Free Radical Scavenging Ability ([1]; Comp. Conc. 1000 µg/mL): 95.20 ± 0.15 %
- IC50, H2O2 free radical scavenging ability [2]: 4.50 µg/mL
- H2O2 free radical scavenging ability ([2]; Comp. Conc. 62.5 µg/mL): 74.17 ± 0.72 %
- H2O2 free radical scavenging ability ([2]; Comp. Conc. 125 µg/mL): 79.60 ± 0.90 ^⸸ %
- H2O2 free radical scavenging ability ([2]; Comp. Conc. 250 µg/mL): 85.50 ± 0.40 %
- H2O2 free radical scavenging ability ([2]; Comp. Conc. 500 µg/mL): 89.37 ± 1.65 %
- H2O2 free radical scavenging ability ([2]; Comp. Conc. 1000 µg/mL): 93.55 ± 0.40 %
- IC50, Inhibition of Acetylcholinesterase [3]: 2 µg/mL
- Inhibition of Acetylcholinesterase (%AChE Activity) ([3]; Comp. Conc. 62.5 µg/mL): 71.73 ± 0.66 %
- Inhibition of Acetylcholinesterase (%AChE Activity) ([3]; Comp. Conc. 125 µg/mL): 73.70 ± 0.35 ^⸙ %
- Inhibition of Acetylcholinesterase (%AChE Activity) ([3]; Comp. Conc. 250 µg/mL): 78.07 ± 0.62 ^⸸ %
- Inhibition of Acetylcholinesterase (%AChE Activity) ([3]; Comp. Conc. 500 µg/mL): 83.01 ± 0.42 ^⸸ %
- Inhibition of Acetylcholinesterase (%AChE Activity) ([3]; Comp. Conc. 1000 µg/mL): 87.50 ± 2.26 ^⸙ %
- IC50, inhibition of butyrylcholinesterase [4]: 04 µg/mL
- inhibition of butyrylcholinesterase (% BChE activity) ([4]; Comp. Conc. 62.5 µg/mL): 66.29 ± 0.43 %
- inhibition of butyrylcholinesterase (% BChE activity) ([4]; Comp. Conc. 125 µg/mL): 67.23 ± 0.44 %
- inhibition of butyrylcholinesterase (% BChE activity) ([4]; Comp. Conc. 250 µg/mL): 72.83 ± 1.07 %
- inhibition of butyrylcholinesterase (% BChE activity) ([4]; Comp. Conc. 500 µg/mL): 76.87 ± 0.39 %
- inhibition of butyrylcholinesterase (% BChE activity) ([4]; Comp. Conc. 1000 µg/mL): 81.44 ± 0.09 %
- DPPH Free Radical Scavenging Ability [5]: 77.80 ± 0.37 ^⸙ %

Reference: paper PMC10224544, “Synthesis, Structural Elucidation and Pharmacological Applications of Cu(II) Heteroleptic Carboxylates” (Pharmaceuticals, 2023)
